Source: patent US4173641A, “Di-O-n-alkyl glycerol derivatives as immune stimulants” (priority 1978, dated 1979)
Where “and” joins values, the source holds several entries; their conditions need not be identical. Equal entries are not always repeated. Structures can show the parent of a compound that is named as a salt. Where two headings read alike, the source gives them in different places.

Legend:
[1] = system: S-180J cells (sarcoma 180J); experiment: Sarcoma 180J model for assessment of tumor rejection; assay type: in vivo, female CD-1 mice; conditions: for number of 40 day survivors: six mice per group
Procedure: Six female CD-1 mice (20-25 g) per group received 10^6 S-180J cells which were 5 to 8 days old by intraperitoneal administration. On the day following tumor innoculation the mice received 0.1 ml of the test compound formulated in the fat emulsion vehicle Intralipid (Cutter Laboratories) at the desired dose and were then observed until death or 40 days, whichever occurs first. Results are expressed as increased percent life span (%ILS), defined as follows: [formula] Results obtained by the above test procedure were as follows:
Results of the above test obtained with (1-hydroxy-2-alkylamino ethyl)-benzyloxy analogs of this invention formulated in Tween 80-glycerol-water are shown in Table 2.
(Numbers in parentheses in Tables 1 and 2 above are the number

in vivo = experiment: in vivo; parameters: species or system mice and rats; conditions: read-out: therapeutic index
Excerpt: The compounds may be used in pharmaceutical preparations containing the compound or a pharmaceutically acceptable salt thereof in combination with a pharmaceutically acceptable carrier or diluent. A particularly preferred type of pharmaceutical carrier for this purpose is a sterile fat or lipid emulsion vehicle. […] Such advantages have been reported for other compounds used with such fat emulsion vehicles, see for example Fortner, et al., American Journal of Hospital Pharmacy, 32, 502 (1975) and Jeppsson, et al., First International Conference on Pharmaceutical technology, Faculty of Pharmacy, Paris-Sud, June 1977. An example of a particularly suitable vehicle is Intralipid (Cutter Laboratories, Berkeley, California), a 10% fat emulsion, based on soybean oil. However, other similar vehicles would be suitable and may be readily prepared by those skilled in the art.

Influenza virus = experiment: Vaccine adjuvanticity - hemagglutination inhibition test; assay type: in vivo, Hartley female guinea pigs (vaccinated); influenza virus; conditions: for Hemagglutination Titer: compound (5 mg) with Fluogen, individual animal
[2] = system: L 1210 cells / peritoneal macrophages; experiment: Assessment of peritoneal macrophage activation (inhibition of DNA synthesis in L 1210 cells); assay type: in vivo, mice; conditions: Mus musculus, L1210, ip, intraperitoneal, macrophages harvested 72 hours later
Procedure: (§1) Mice were injected intraperitoneally with saline or the test compound. Macrophages were harvested 72 hours later by intraperitoneal injection of 3 ml 8% fetal calf serum-- 92% RPMI 1640 medium (Grand Island Biological Co., N.Y.) (164092 FCS8) plus 5 units/ml of heparin, the temperature of all media being kept at 37° C., lavaged 1 to 2 minutes, opened and all peritoneal fluid drawn off with a sterile, siliconized pipet into a 50 ml plastic tube kept in ice. The macrophages were counted using a hemocytometer and adjusted to a concentration of 1.5×10^6 /ml with 164092 FCS8. The cells were then placed in multiwell plates, 1.5×10^6 cells per well, and incubated for 1 to 2 hours at 37° C. in a 5% carbon dioxide atmosphere. The supernate was discarded and the cells were washed once with media, the macrophages adhering to the bottom of the wells. L 1210 cells (harvested from ascites of DBA mice approximately 5 days after innoculation) in 164092 FCS8 were then added, 1 ml of 1×10^5 cells/ml to each well and incubated at 37° C. for 24 to 30 hours in a 5% carbon dioxide atmosphere. The cells were then pulsed with ^3 H-Tdr (1.0μCi/ml; Amersham/Searles) for 6 hours at 37° C., the supernate drawn off using a cell harvester: Reeve-Angel filter, and washed five times with saline. The filter discs were allowed to dry and placed in scintillation vials with LSC scintillation fluid (5.0 g PPO and 0.2 g POPOP/liter toluene; Yorktown Research). Counting was done for 2 minutes using a Beekman LS-250 β-counter.

[3] = system: L1210 cells / peripheral blood monocytes; experiment: Assessment of peripheral blood monocyte activation (inhibition of DNA synthesis in L1210 cells); assay type: in vivo, rats; conditions: Rattus norvegicus, intravenous, monocytes harvested 72 hours later, Effector:Target ratio 15:1
Procedure: as §1, with “The cells were then pulsed with ^3 H-Tdr (1.0μCi/ml; Amersham/Searles) for 6 hours at 37° C., the supernate drawn off using a cell harvester: Reeve-Angel filter, and washed five times with saline. The filter discs were allowed to dry and placed in scintillation vials with LSC scintillation fluid (5.0 g PPO and 0.2 g POPOP/liter toluene; Yorktown Research). Counting was done for 2 minutes using a Beekman LS-250 β-counter.” left out
Rats were injected intravenously with the test compound, or with saline for control animals. […] Following the procedure described in Example 13 the cells were pulsed with ^3 H-Tdr and counted with a scintillation counter.

[4] = 5 mg/kg, Tween 80-glycerol-water
[5] = 15 mg/kg, Tween 80-glycerol-water
[6] = 50 mg/kg, Tween 80-glycerol-water
[7] = 0.25 mg/kg, fat emulsion vehicle Intralipid
[8] = 1 mg/kg, fat emulsion vehicle Intralipid
[9] = 4 mg/kg, fat emulsion vehicle Intralipid
[10] = 16 mg/kg, fat emulsion vehicle Intralipid

## CCCCCCCCCCCCCCCCOCC(COCCCCCCCCCCCCCCCC)OCc1cccc(C(O)CNC(C)(C)C)c1 (stereo not drawn) [C(CH3)3 1,3]
[1]; [4]
  %ILS (increased percent life span): 159%
  number of 40 day survivors: 1
[1]; [5]
  %ILS (increased percent life span): 171%
  number of 40 day survivors: 3
[1]; [6]
  %ILS (increased percent life span): 157%
  number of 40 day survivors: 2

## CCCCCCCCCCCCCCCCOCC(COCc1cccc(C(O)CNC(C)(C)C)c1)OCCCCCCCCCCCCCCCC.Cl (stereo not drawn) [C(CH3)3 2,3, 1,2-Di-O-(n-hexadecyl)-3-O-[3-(1-hydroxy-2-t-butylaminoethyl)benzyl]-glycerol hydrochloride]
[1]; [4]
  %ILS (increased percent life span): 166%
  number of 40 day survivors: 2
[1]; [5]
  %ILS (increased percent life span): 181%
  number of 40 day survivors: 4
[1]; [6]
  %ILS (increased percent life span): 182%
  number of 40 day survivors: 4

## CCCCCCCCCCCCCCCCOCC(COCc1cccc(C(O)CNC(C)C)c1)OCCCCCCCCCCCCCCCC (stereo not drawn) [CH(CH3)2 2,3]
[1]; [4]
  %ILS (increased percent life span): 174%
  number of 40 day survivors: 1
[1]; [5]
  %ILS (increased percent life span): 135%
[1]; [6]
  %ILS (increased percent life span): 147%
  number of 40 day survivors: 1

## CCCCCCCCOCC(CN1CCC(CN)(c2ccccc2)CC1)OCCCCCCCC (stereo not drawn) [n-C8 H17]
In vivo; Tween 80-glycerol-water formulations
  selectivity ratio: ~3
In vivo; sterile fat or lipid emulsion vehicle, parenteral and intravenous
  selectivity ratio: 15 to 25
[1]; [7]
  %ILS (increased percent life span): 113%
[1]; [8]
  %ILS (increased percent life span): 109%
[1]; 4 mg/kg, Intralipid
  number of 40 day survivors: 1
[1]; [9]
  %ILS (increased percent life span): 154%
[1]; 16 mg/kg, Intralipid
  number of 40 day survivors: 4
[1]; [10]
  %ILS (increased percent life span): 192%

## CCCCCCCCCCOCC(CN1CCC(CN)(c2ccccc2)CC1)OCCCCCCCCCC (stereo not drawn) [n-C10 H21, 4-Aminomethyl-1-[2,3-(di-n-decyloxy)-n-propyl]-4-phenylpiperidine]
Influenza virus; day 15 after primary sensitization
  Hemagglutination Titer: 10 and 0
Influenza virus; day 30 after primary sensitization (rechallenge day)
  Hemagglutination Titer: 10 and 40 and 20 and 0
Influenza virus; day 44 after primary sensitization, rechallenged at 30 days
  Hemagglutination Titer: 80 and 640 and 10 and 40
Influenza virus; day 65 after primary sensitization, rechallenged at 30 days
  Hemagglutination Titer: 1280 and 2560 and 160 and 20 and 10
Influenza virus; compound with Fluogen, in words
  hemagglutination titer observed after rechallenge (adjuvant activity): higher hemagglutination titer observed after rechallenge
[2]; 0.313 mg/kg
  inhibition at 0.313 mg/kg: 56%
[2]; 0.625 mg/kg
  inhibition at 0.625 mg/kg: 94%
[2]; 1.25 mg/kg
  inhibition at 1.25 mg/kg: 76%
[1]; [7]
  %ILS (increased percent life span): 127%
[1]; 1 mg/kg, Intralipid
  number of 40 day survivors: 1
[1]; [8]
  %ILS (increased percent life span): 139%
[1]; [9]
  %ILS (increased percent life span): 110%
[1]; [10]
  %ILS (increased percent life span): 108%
[3]
  inhibition at 1.25 mg/kg: 80%

## CCCCCCCCCCCCCCOCC(CN1CCC(CN)(c2ccccc2)CC1)OCCCCCCCCCCCCCC (stereo not drawn) [n-C14 H29]
[2]; 25 mg/kg
  inhibition at 25 mg/kg: 90%
[1]; 0.25 mg/kg, Intralipid
  number of 40 day survivors: 1
[1]; [7]
  %ILS (increased percent life span): 129%
[1]; [8]
  %ILS (increased percent life span): 116%
[1]; [9]
  %ILS (increased percent life span): 133%
[1]; [10]
  %ILS (increased percent life span): 109%

## CCCCCCCCCCCCCCCCOCC(CN1CCC(CN)(c2ccccc2)CC1)OCCCCCCCCCCCCCCCC (stereo not drawn) [n-C16 H33, 4-Aminomethyl-1-[2,3-(di-n-hexadecyloxy)-n-propyl]-4-phenylpiperidine Dihydrochloride]
[1]; [7]
  %ILS (increased percent life span): 110%
[1]; [8]
  %ILS (increased percent life span): 105%
[1]; [9]
  %ILS (increased percent life span): 104%
[1]; [10]
  %ILS (increased percent life span): 127%

## CCCCCCCCCCCCCCCCCCOCC(CN1CCC(CN)(c2ccccc2)CC1)OCCCCCCCCCCCCCCCCCC (stereo not drawn) [n-C18 H37]
[1]; [7]
  %ILS (increased percent life span): 119%
[1]; 1 mg/kg, Intralipid
  number of 40 day survivors: 2
[1]; [8]
  %ILS (increased percent life span): 158%
[1]; [9]
  %ILS (increased percent life span): 98%
[1]; [10]
  %ILS (increased percent life span): 109%
